Assay results taken from ChEMBL document CHEMBL5584244, “Discovery of novel pyrrolo[2,1-c][1,4]benzodiazepine-3,11-dione (PBD) derivatives as selective HDAC6 inhibitors for the efficient treatment of idiopathic pulmonary fibrosis (IPF) in vitro and in vivo” (Eur J Med Chem, 2024).
The source made the active and inactive calls. The rule behind the calls is not given here.

Legend:
Mus musculus [1] = test: Anti-pulmonary fibrosis activity in bleomycin-induced C57BL/6 mouse model of pulmonary fibrosis assessed as decrease in thickening of the alveolar wall in lung at 100 mg/kg, ip for 3 weeks by Masson trichrome staining based microscopic analysis; format: functional, organism-based
Mus musculus [2] = test: Anti-pulmonary fibrosis activity in bleomycin-induced C57BL/6 mouse model of pulmonary fibrosis assessed as decrease in inflammatory cell infiltration in lung at 100 mg/kg, ip for 3 weeks by H and E staining based fluorescence microscopic analysis; format: functional, organism-based
Mus musculus [3] = test: Anti-pulmonary fibrosis activity in bleomycin-induced C57BL/6 mouse model of pulmonary fibrosis assessed as decrease in thickening of the alveolar wall in lung at 100 mg/kg, ip for 3 weeks by H and E staining based fluorescence microscopic analysis; format: functional, organism-based
Mus musculus [4] = test: Anti-pulmonary fibrosis activity in bleomycin-induced C57BL/6 mouse model of pulmonary fibrosis assessed as decrease structural damage in lung at 100 mg/kg, ip for 3 weeks by H and E staining based fluorescence microscopic analysis; format: functional, organism-based
Mus musculus [5] = test: Anti-pulmonary fibrosis activity in bleomycin-induced C57BL/6 mouse model of pulmonary fibrosis assessed as decrease in fibrosis scars in lung at 100 mg/kg, ip for 3 weeks by H and E staining based fluorescence microscopic analysis; format: functional, organism-based
Mus musculus [6] = test: Anti-pulmonary fibrosis activity in bleomycin-induced C57BL/6 mouse model of pulmonary fibrosis assessed as decrease in collapse of the alveolar cavity in lung at 100 mg/kg, ip for 3 weeks by Masson trichrome staining based microscopic analysis; format: functional, organism-based
Mus musculus [7] = test: Anti-pulmonary fibrosis activity in bleomycin-induced C57BL/6 mouse model of pulmonary fibrosis assessed as decrease in collapse of the alveolar cavity in lung at 100 mg/kg, ip for 3 weeks by H and E staining based fluorescence microscopic analysis; format: functional, organism-based
Mus musculus [8] = test: Anti-pulmonary fibrosis activity in bleomycin-induced C57BL/6 mouse model of pulmonary fibrosis assessed as decrease in structural damage in lung at 100 mg/kg, ip for 3 weeks by Masson trichrome staining based microscopic analysis; format: functional, organism-based
Mus musculus [9] = test: Anti-pulmonary fibrosis activity in bleomycin-induced C57BL/6 mouse model of pulmonary fibrosis assessed as decrease in disturbance of alveolar structure in lung at 100 mg/kg, ip for 3 weeks by H and E staining based fluorescence microscopic analysis; format: functional, organism-based
Mus musculus [10] = test: Anti-pulmonary fibrosis activity in bleomycin-induced C57BL/6 mouse model of pulmonary fibrosis assessed as decrease in collagen level in lung at 100 mg/kg, ip for 3 weeks by Masson trichrome staining based microscopic analysis; format: functional, organism-based
Mus musculus [11] = test: Anti-pulmonary fibrosis activity in bleomycin-induced C57BL/6 mouse model of pulmonary fibrosis assessed as increase in body weight at 100 mg/kg, ip for 3 weeks; format: functional, organism-based
[12] = Half life in human liver microsomes at 100 uM by LC-MS/MS analysis; format: ADME, Microsome
[13] = molecular target: T1, Protein deacetylase HDAC6 (Homo sapiens, UniProt Q9UBN7); test: Inhibition of recombinant human full length HDAC6 using Boc-Lys (Ac)-AMC as substrate incubated for 120 mins by fluorescence analysis
T1 sequence (Q9UBN7 whole entry): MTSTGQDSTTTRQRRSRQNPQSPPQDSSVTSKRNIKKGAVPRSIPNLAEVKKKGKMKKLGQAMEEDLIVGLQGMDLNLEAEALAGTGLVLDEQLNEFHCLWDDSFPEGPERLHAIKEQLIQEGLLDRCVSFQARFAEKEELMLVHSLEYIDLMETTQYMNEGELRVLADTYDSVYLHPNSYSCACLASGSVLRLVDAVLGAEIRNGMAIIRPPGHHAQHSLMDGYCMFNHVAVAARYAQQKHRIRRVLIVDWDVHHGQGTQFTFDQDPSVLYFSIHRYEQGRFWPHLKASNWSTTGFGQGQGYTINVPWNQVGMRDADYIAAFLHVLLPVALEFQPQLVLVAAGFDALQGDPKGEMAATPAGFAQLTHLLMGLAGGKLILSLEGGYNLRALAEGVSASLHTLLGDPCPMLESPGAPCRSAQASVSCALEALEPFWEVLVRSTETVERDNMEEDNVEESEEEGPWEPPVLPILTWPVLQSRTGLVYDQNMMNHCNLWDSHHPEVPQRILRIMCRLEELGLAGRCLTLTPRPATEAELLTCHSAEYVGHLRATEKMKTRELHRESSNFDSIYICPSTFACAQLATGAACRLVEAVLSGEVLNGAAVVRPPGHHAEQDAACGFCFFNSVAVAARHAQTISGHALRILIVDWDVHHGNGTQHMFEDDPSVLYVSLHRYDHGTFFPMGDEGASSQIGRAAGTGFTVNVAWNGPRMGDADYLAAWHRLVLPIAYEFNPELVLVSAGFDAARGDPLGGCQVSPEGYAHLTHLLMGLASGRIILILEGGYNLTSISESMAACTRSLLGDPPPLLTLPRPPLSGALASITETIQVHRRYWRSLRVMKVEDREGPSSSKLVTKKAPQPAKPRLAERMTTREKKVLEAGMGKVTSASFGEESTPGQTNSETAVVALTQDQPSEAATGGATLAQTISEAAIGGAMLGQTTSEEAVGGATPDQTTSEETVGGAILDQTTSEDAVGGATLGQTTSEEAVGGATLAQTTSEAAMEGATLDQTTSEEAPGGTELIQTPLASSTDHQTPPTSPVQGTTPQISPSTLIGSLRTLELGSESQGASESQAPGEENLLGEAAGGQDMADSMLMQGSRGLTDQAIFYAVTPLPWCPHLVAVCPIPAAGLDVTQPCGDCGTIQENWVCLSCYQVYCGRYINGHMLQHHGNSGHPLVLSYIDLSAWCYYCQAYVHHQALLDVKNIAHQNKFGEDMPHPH

Histone deacetylase 4 = Histone deacetylase 4 (Homo sapiens, UniProt P56524); test: Inhibition of recombinant human HDAC4 using Boc-Lys (Ac)-AMC as substrate incubated for 120 mins by fluorescence analysis
Histone deacetylase 2 = Histone deacetylase 2 (Homo sapiens, UniProt Q92769); test: Inhibition of recombinant human full length HDAC2 using Boc-Lys (Ac)-AMC as substrate incubated for 120 mins by fluorescence analysis
[14] = molecular target: T2, Polyamine deacetylase HDAC10 (Homo sapiens, UniProt Q969S8); test: Inhibition of N-terminal FLAG-tagged recombinant human HDAC10 (2 to 631 residues) expressed in baculovirus sf9 insect cells expression system using Boc-Lys (Ac)-AMC as substrate incubated for 120 mins by fluorescence analysis
T2 sequence (Q969S8 whole entry): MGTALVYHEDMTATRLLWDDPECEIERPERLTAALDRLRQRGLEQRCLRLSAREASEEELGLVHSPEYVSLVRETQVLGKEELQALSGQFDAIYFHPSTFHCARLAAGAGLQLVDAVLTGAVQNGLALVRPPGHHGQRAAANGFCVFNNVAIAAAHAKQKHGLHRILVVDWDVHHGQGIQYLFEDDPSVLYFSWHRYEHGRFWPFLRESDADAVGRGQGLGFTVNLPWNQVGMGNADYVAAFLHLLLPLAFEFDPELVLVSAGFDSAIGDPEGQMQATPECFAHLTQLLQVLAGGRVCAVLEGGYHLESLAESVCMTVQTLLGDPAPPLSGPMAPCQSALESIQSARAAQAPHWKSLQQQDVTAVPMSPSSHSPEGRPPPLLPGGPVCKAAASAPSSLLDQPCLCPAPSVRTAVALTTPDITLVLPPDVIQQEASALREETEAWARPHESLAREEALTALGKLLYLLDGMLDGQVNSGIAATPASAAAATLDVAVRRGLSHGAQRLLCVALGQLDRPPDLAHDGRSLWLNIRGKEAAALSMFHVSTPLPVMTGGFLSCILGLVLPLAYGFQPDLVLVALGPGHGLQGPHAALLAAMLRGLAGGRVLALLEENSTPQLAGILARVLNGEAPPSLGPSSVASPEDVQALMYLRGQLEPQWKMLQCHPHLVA

Homo sapiens = species on record: Homo sapiens; test: Selectivity index, ratio IC50 for C-terminal His6/Flag-tagged recombinant human full length HDAC1 to IC50 for inhibition of recombinant human full length HDAC6
Histone deacetylase 11 = molecular target: T3, Histone deacetylase 11 (Homo sapiens, UniProt Q96DB2); test: Inhibition of recombinant human full length HDAC11 using Boc-Lys (Tfa)-AMC as substrate incubated for 120 mins by fluorescence analysis
T3 sequence (Q96DB2 whole entry): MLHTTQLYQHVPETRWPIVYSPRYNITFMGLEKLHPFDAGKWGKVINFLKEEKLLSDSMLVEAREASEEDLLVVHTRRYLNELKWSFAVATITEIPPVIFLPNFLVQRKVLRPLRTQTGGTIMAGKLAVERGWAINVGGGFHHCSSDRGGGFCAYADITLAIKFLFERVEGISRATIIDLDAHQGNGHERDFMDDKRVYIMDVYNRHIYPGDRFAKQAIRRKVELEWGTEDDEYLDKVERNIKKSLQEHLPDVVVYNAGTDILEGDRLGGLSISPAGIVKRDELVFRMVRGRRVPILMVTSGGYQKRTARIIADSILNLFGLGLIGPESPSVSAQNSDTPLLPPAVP

Histone deacetylase 7 = molecular target: T4, Histone deacetylase 7 (Homo sapiens, UniProt Q8WUI4); test: Inhibition of N-terminal GST-tagged recombinant human HDAC7 (518 to end residues) expressed in baculovirus expression system using Boc-Lys (Tfa)-AMC as substrate incubated for 120 mins by fluorescence analysis
T4 sequence (Q8WUI4 whole entry): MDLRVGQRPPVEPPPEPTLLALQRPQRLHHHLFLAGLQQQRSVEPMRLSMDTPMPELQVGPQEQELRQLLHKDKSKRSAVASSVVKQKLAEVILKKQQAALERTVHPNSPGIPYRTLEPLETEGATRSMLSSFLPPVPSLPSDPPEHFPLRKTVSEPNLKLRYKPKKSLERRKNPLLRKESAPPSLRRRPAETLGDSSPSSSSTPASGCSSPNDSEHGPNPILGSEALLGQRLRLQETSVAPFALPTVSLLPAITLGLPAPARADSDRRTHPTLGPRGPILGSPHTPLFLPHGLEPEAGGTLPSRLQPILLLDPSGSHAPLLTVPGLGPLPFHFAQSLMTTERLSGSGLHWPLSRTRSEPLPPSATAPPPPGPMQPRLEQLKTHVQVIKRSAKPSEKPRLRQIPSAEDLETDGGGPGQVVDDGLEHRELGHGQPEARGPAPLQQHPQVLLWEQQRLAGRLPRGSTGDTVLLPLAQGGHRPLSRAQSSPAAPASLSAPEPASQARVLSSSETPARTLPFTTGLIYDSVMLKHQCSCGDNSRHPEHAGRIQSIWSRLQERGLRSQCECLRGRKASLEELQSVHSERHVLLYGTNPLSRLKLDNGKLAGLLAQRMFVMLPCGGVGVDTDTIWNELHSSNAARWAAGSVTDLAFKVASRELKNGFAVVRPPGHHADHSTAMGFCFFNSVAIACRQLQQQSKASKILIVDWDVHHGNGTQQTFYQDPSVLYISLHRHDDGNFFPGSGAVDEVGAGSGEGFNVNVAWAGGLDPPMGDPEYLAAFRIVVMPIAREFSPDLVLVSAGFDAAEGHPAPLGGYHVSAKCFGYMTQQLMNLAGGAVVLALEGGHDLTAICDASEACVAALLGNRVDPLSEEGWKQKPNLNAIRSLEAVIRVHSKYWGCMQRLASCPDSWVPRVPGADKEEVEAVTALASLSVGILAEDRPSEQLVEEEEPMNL

Histone deacetylase 1 = Histone deacetylase 1 (Homo sapiens, UniProt Q13547); test: Inhibition of C-terminal His6/Flag-tagged recombinant human full length HDAC1 using Boc-Lys (Ac)-AMC as substrate incubated for 120 mins by fluorescence analysis
Sequence of Histone deacetylase 1 (Q13547 whole entry): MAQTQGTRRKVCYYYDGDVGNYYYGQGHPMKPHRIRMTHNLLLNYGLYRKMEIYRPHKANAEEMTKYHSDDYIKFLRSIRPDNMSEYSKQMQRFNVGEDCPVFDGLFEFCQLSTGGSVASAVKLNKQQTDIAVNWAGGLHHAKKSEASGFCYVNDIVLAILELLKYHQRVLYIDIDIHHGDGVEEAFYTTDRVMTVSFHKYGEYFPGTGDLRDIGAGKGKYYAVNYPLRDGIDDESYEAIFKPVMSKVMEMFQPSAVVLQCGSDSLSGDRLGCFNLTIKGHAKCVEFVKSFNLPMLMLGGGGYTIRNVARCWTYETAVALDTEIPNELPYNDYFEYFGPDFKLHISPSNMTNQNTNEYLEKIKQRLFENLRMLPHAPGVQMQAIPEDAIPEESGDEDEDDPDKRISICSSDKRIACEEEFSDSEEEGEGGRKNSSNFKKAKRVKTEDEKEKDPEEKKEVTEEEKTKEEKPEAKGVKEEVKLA

Sequence of Histone deacetylase 4 (P56524 whole entry): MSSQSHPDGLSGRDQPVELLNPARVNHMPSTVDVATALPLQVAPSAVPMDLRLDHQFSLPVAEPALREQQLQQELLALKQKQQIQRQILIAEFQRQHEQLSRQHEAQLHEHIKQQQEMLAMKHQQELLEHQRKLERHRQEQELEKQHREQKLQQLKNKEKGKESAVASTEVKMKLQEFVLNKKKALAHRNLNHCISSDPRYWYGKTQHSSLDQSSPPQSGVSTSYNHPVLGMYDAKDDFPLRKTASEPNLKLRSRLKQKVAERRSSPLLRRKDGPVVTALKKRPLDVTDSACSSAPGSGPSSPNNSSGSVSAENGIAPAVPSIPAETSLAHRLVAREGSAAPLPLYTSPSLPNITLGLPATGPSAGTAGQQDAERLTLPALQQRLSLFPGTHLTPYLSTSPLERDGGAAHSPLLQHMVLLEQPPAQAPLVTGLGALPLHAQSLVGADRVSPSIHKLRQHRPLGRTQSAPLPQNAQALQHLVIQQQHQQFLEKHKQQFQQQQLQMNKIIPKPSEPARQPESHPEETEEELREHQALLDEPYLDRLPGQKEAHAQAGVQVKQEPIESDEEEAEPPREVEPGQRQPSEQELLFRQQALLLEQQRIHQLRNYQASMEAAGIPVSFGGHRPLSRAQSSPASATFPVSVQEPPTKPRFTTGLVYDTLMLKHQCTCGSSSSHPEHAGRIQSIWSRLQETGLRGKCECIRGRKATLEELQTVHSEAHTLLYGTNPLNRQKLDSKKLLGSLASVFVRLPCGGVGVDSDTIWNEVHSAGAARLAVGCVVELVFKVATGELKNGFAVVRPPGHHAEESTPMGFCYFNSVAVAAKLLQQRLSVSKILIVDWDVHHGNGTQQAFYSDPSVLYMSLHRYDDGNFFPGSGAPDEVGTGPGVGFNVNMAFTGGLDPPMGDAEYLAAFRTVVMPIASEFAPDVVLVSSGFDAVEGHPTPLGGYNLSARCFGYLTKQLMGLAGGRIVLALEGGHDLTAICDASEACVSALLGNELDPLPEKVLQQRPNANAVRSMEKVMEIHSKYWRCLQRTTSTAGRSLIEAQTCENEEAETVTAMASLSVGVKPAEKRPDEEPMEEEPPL
Sequence of Histone deacetylase 2 (Q92769 whole entry, the tested form may be a part): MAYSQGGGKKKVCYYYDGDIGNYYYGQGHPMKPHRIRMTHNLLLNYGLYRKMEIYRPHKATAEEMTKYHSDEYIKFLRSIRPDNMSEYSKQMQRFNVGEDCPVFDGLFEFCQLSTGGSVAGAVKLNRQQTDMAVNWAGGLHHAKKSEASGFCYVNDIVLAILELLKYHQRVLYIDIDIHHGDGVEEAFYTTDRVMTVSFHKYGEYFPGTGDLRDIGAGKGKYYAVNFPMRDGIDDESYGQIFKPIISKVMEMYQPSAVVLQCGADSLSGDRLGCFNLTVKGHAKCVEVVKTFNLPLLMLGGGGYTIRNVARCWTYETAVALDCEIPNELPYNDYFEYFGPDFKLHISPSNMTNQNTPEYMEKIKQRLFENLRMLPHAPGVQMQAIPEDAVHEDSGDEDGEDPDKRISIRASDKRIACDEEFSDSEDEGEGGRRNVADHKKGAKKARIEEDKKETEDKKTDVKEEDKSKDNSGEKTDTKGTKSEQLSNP

Compound: Cc1ccc(=O)n(-c2ccccc2)c1
- Activity (Mus musculus [1]): inactive
- Activity (Mus musculus [2]): Active
- Activity (Mus musculus [3]): Active
- Activity (Mus musculus [4]): Active
- Activity (Mus musculus [5]): Active
- Activity (Mus musculus [6]): inactive
- Activity (Mus musculus [7]): Active
- Activity (Mus musculus [8]): inactive
- Activity (Mus musculus [9]): Active
- Activity (Mus musculus [10]): Active
- Activity (Mus musculus [11]): Active

Compound: O=C(O)Cc1ccccc1Nc1c(Cl)cccc1Cl [DICLOFENAC]
- half-life at 100 µM [12]: 5.3 min

Compound: O=C(CCCCCN1C(=O)[C@@H]2CCCN2Cc2ccccc21)NO
- IC50 [13]: 8.45 nM
- IC50 (Histone deacetylase 4): 499 nM
- IC50 (Histone deacetylase 2): 2680 nM
- IC50 [14]: 961 nM
- Ratio IC50 (Homo sapiens): 51.7
- IC50 (Histone deacetylase 11): > 50000 nM
- IC50 (Histone deacetylase 7): 731 nM
- IC50 (Histone deacetylase 1): 437 nM

Compound: COc1cc2c(cc1O)CN1C(=O)CC[C@H]1C(=O)N2Cc1ccccc1C(=O)NO
- IC50 [13]: 279 nM

Compound: COc1cc2c(cc1O)CN1C(=O)CC[C@H]1C(=O)N2CCCCCCC(=O)NO
- IC50 [13]: 13.5 nM

Compound: O=C(NO)c1ccccc1CN1C(=O)[C@@H]2CCCN2Cc2ccccc21
- IC50 [13]: > 300 nM

Compound: COc1cc2c(cc1O)CN1C(=O)CC[C@H]1C(=O)N2Cc1cccc(C(=O)NO)c1
- IC50 [13]: 296 nM

Compound: COc1cc2c(cc1OCc1ccccc1)CN1C(=O)CC[C@H]1C(=O)N2Cc1cccc(C(=O)NO)c1
- IC50 [13]: 181 nM

Compound: O=C(CCCCCCN1C(=O)[C@@H]2CCCN2Cc2ccccc21)NO
- IC50 [13]: 294 nM

Compound: O=C(Cc1ccc(CN2C(=O)[C@@H]3CCCN3Cc3ccccc32)cc1)NO
- IC50 [13]: 288 nM

Compound: COc1cc2c(cc1OCc1ccccc1)CN1C(=O)CC[C@H]1C(=O)N2Cc1ccc(CC(=O)NO)cc1
- IC50 [13]: 22.3 nM
